molecular target: T1, PRMT8 (Homo sapiens, UniProt Q9NR22); test: PRMT8 Biochemical Assay (3H-SAM Flashplate, peptide substrate); settings: 30 min preincubation, room temperature
T1 construct: Full-length human PRMT8 (NM_019854.4) isoform 1 transcript clone; made in house; host or cells: E. coli BL21(DE3) Gold
Text: S-adenosylmethionine (SAM), S-adenosylhomocysteine (SAH), bicine, Tween20, dimethylsulfoxide (DMSO), bovine skin gelatin (BSG), isopropyl-β-D-thiogalactopyranoside (IPTG), and Tris(2-carboxyethyl)phosphine hydrochloride solution (TCEP) were purchased from Sigma-Aldrich at the highest level of purity possible. ^3H-SAM was purchase from American Radiolabeled Chemicals with a specific activity of 80 Ci/mmol. 384-well streptavidin Flashplates were purchased from PerkinElmer.
Peptide representative of human histone H4 residues 31-45 was synthesized with an N-terminal linker-affinity tag motif and a C-terminal amide cap by 21st Century Biochemicals. The peptide was purified by high-performance liquid chromatography (HPLC) to greater than 95% purity and confirmed by liquid chromatography mass spectrometry (LC-MS). The sequence was Biot-Ahx-[…]-amide (SEQ ID NO.:8).
The resulting construct encodes an N-terminal GST tag and a thrombin cleavage sequence ([…] […] […] […]) (SEQ ID NO.:9) fused directly to Met 1 of PRMT8.
E. coli (BL21(DE3) Gold, Stratagene) made competent by the CaCl2 method were transformed with the PRMT8 construct and ampicillin selection. Protein over-expression was accomplished by growing the PRMT8 expressing E. coli clone and inducing expression with 0.3 mM IPTG at 16° C. The culture was grown for 12 hours, harvested by centrifugation, and stored at −80° C. for purification.
The column was washed with 50 mM phosphate buffer, 100 mM NaCl, 5% glycerol, 5 mM (3-mercaptoethanol, pH 7.8 and PRMT8 was eluted by 100 mM phosphate in the same buffer. Protein was concentrated and buffer was exchanged to 50 mM Tris, 300 mM NaCl, 10% glycerol, 5 mM β-mercaptoethanol, pH 7.8 by ultrafiltration. The purity of recovered protein was 89%.
General Procedure for PRMT8 Enzyme Assays on Peptide Substrates.
The assays were all performed in a buffer consisting of 20 mM Bicine (pH=7.6), 1 mM TCEP, 0.005% BSG, and 0.002% Tween 20, prepared on the day of use. Compounds in 100% DMSO (1 ul) were spotted into a polypropylene 384-well V-bottom plates (Greiner) using a Platemate Plus outfitted with a 384-channel head (Thermo Scientific). DMSO (1 ul) was added to Columns 11, 12, 23, 24, rows A-H for the maximum signal control and 1 ul of SAH, a known product and inhibitor of PRMT8, was added to columns 11, 12, 23, 24, rows I-P for the minimum signal control. A cocktail (40 ul) containing the PRMT8 enzyme was added by Multidrop Combi (Thermo-Fisher). The compounds were allowed to incubate with PRMT8 for 30 min at room temperature, then a cocktail (10 ul) containing ^3H-SAM and peptide was added to initiate the reaction (final volume=51 ul). The final concentrations of the components were as follows: PRMT8 was 1.5 nM, ^3H-SAM was 50 nM, non-radiolabeled SAM was 550 nM, peptide was 150 nM, SAH in the minimum signal control wells was 1 mM, and the DMSO concentration was 2%. The assays were stopped by the addition of non-radiolabeled SAM (10 ul) to a final concentration of 400 uM, which dilutes the ^3H-SAM to a level where its incorporation into the peptide substrate is no longer detectable. 50 ul of the reaction in the 384-well polypropylene plate was then transferred to a 384-well Flashplate and the biotinylated peptides were allowed to bind to the streptavidin surface for at least 1 hour before being washed once with 0.1% Tween20 in a Biotek ELx405 plate washer. The plates were then read in a PerkinElmer TopCount plate reader to measure the quantity of ^3H-labeled peptide bound to the Flashplate surface, measured as disintegrations per minute (dpm) or alternatively, referred to as counts per minute (cpm).
Where dpm=disintegrations per minute, cmpd=signal in assay well, and min and max are the respective minimum and maximum signal controls.
Where top and bottom are the normally allowed to float, but may be fixed at 100 or 0 respectively in a 3-parameter fit. […]

T1 sequence (Q9NR22 whole entry, canonical isoform): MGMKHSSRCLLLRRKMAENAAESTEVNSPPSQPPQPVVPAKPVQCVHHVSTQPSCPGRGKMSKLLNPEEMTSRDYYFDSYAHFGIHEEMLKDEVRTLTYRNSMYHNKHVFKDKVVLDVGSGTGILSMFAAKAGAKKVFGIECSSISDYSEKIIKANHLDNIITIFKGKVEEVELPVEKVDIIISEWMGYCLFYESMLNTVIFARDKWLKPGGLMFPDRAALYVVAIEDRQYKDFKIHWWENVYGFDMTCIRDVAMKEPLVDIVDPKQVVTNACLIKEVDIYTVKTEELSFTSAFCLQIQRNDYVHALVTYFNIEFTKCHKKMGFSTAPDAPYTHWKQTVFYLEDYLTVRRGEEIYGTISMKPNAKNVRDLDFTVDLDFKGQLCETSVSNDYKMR

Row | SMILES | IC50 [nM]
1 | CN(CCN)Cc1c[nH]nc1-c1cnc(C2CC2)nc1 [Compound 28] | 1010 to 3000
2 | CN(CCN)Cc1c[nH]nc1-c1ccc2nccn2c1 [Compound 21, N^1-((3-(imidazo[1,2-a]pyridin-6-yl)-1H-pyrazol-4-yl)methyl)-N^1-methylethane-1,2-diamine] | 101 to 1000
3 | CN(CCN)Cc1c[nH]nc1-c1cnn(-c2ccccc2)c1 [Compound 17] | 101 to 1000
4 | CCn1cc(-c2n[nH]cc2CN(C)CCN)cn1 [Compound 16] | 101 to 1000
5 | CC(C)n1cc(-c2n[nH]cc2CN(C)CCN)cn1 [Compound 22] | 101 to 1000
6 | CN(CCN)Cc1c[nH]nc1-c1ccc2[nH]ncc2c1 [Compound 27, N^1-((3-(1H-indazol-5-yl)-1H-pyrazol-4-yl)methyl)-N^1-methylethane-1,2-diamine] | 101 to 1000
7 | CN(CCN)Cc1c[nH]nc1-c1cnn(CCO)c1 [Compound 18] | 1010 to 3000
8 | CN(CCN)Cc1c[nH]nc1-c1cnn(C)c1 [Compound 8] | 3010 to 10000
9 | CN(CCN)Cc1c[nH]nc1-c1cncnc1 [Compound 4] | 1010 to 3000
10 | CN(CCN)Cc1c[nH]nc1-c1cc[nH]n1 [Compound 14] | ≥ 10000
11 | CN(CCN)Cc1c[nH]nc1-c1ccc2scnc2c1 [Compound 9] | 101 to 1000

Next, values leading:

Row | IC50 [nM] | SMILES
12 | 3010 to 10000 | CN(CCN)Cc1c[nH]nc1-c1ccco1 [Compound 6]
13 | 101 to 1000 | CN(CCN)Cc1c[nH]nc1-c1cnc2[nH]ccc2c1 [Compound 13]
14 | 101 to 1000 | CN(CCN)Cc1c[nH]nc1-c1ccc2cnn(C)c2c1 [Compound 19, N^1-methyl-N^1-((3-(1-methyl-1H-indazol-6-yl)-1H-pyrazol-4-yl)methyl)ethane-1,2-diamine]
15 | 3010 to 10000 | CN(CCN)Cc1c[nH]nc1-c1ccnn1C [Compound 15]
16 | ≥ 10000 | Cc1noc(C)c1-c1n[nH]cc1CN(C)CCN [Compound 10]
17 | 3010 to 10000 | CN(CCN)Cc1c[nH]nc1-c1cccc2[nH]ncc12 [Compound 30]
18 | 1010 to 3000 | CN(CCN)Cc1c[nH]nc1-c1ccsc1 [Compound 3]
19 | 1010 to 3000 | CN(CCN)Cc1c[nH]nc1-c1ccoc1 [Compound 7]
20 | 101 to 1000 | CC(C)Cn1cc(-c2n[nH]cc2CN(C)CCN)cn1 [Compound 23, N^1-((2′-isobutyl-3,4′-bi(1H-pyrazol)-4-yl)methyl)-N^1-methylethane-1,2-diamine]
21 | 1010 to 3000 | COc1ncc(-c2n[nH]cc2CN(C)CCN)cn1 [Compound 11]
22 | 1010 to 3000 | CN(CCN)Cc1c[nH]nc1-c1ccc2ncnn2c1 [Compound 20]
23 | 1010 to 3000 | CN(CCN)Cc1c[nH]nc1-c1cn[nH]c1 [Compound 12]
24 | 3010 to 10000 | CN(CCN)Cc1c[nH]nc1-c1ccc[nH]1 [Compound 29]
25 | 3010 to 10000 | CN(CCN)Cc1c[nH]nc1-c1cccs1 [Compound 5]
26 | 101 to 1000 | CN(CCN)Cc1c[nH]nc1-c1cnn(Cc2ccccc2)c1 [Compound 24, N^1-((1′-benzyl-3,4′-bi(1H-pyrazol)-4-yl)methyl)-N^1-methylethane-1,2-diamine]

From US9630961B2, “Arginine methyltransferase inhibitors and uses thereof” (Epizyme, Inc., priority 2013, dated 2017)
